Columns and labels:
DESI1 = target: T1, DESI1 (Homo sapiens, UniProt Q6ICB0); assay: ABPP chemical proteomics (LC-MS/MS) in HEK293T cells; type: cell-based
T1 construct: endogenous in cells; host or cells: HEK293T
T1 sequence (Q6ICB0 1-168): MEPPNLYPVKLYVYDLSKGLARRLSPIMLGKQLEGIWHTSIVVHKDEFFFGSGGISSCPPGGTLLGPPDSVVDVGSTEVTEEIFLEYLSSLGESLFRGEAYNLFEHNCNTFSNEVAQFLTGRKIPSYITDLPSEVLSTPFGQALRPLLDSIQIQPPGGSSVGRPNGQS
Procedure: (§1) To explore the selectivity of IMP-2587 and IMP-2586 across the whole proteome, we performed quantitative activity-based protein profiling (ABPP) in HEK293T cells following treatment with IMP-2587 or IMP-2586 (Fig. 3a). After ABP incubation, cells were lysed, and probe-labelled proteins were ligated to biotinylated capture reagents.[27] […] USP30 was outcompeted by corresponding parent inhibitors for each ABP (Fig. 5b and d and Tables S3 and S5, ESI ^†), confirming the high potency and rapid engagement of IMP-2587 and IMP-2586 in cells. […] DESI1 and DESI2 are small ubiquitin-related modifier (SUMO) proteases,[3,29–32] and IMP-2587 and IMP-2586 may offer a starting point for future development of DESI ABPs. […]
(§2) d) Live cell probe incubation, lysate click chemistry and precipitation 6-well HEK293T cells were incubated with media containing compounds ABP 2 and ABP 4 at indicated concentrations for 1 h at 37 °C. The cells were washed with PBS and lysed with lysis buffer (50 μL (1% (v/v) Triton X-100, 0.1% (w/v) sodium dodecyl sulfate (SDS), EDTA-free complete protease inhibitor cocktail (1×, Roche) in PBS on ice for 10 min. The lysates were scraped and transferred to corresponding Lo-Bind Eppendorfs. Each lysate was sonicated for 1 minute, and the samples centrifuges at 5,000 x g at 4 °C for 5 minutes to pellet insoluble cellular debris. The supernatant was collected, and protein concentration was determined using the DC Protein Assay (Bio-Rad) as per manufacturer’s instructions, and normalised to lowest concentrated sample (e.g. 1 mg/mL, using lysis buffer). The following “click mixture” was prepared separately, preparing 6 μL for every 100 μL of […]
(§3) Capture reagent (AzRB/AzT for ABP 2, YnT/YnB for ABP 4 10 mM in DMSO, 1 vol; final concentration […]
(§4) CuSO4 (50 mM in water, 2 vol; final concentration in reaction 1 mM)
(§5) TCEP (50 mM in water, 2 vol; final concentration in reaction 1 mM)
(§6) TBTA (10 mM in DMSO, 1 vol; final concentration in reaction 100 µM)
(§7) The click mixture was vortexed and incubated at room temperature for 2 min before 6 μL of the mixture was added to every 100 μL of lysate. The reaction mixtures were shaken at room temperature for 1 h before being quenched with EDTA (500 mM in H2O) to a final concentration of 10 mM.
(§8) Proteins were precipitated by adding H2O (1 vol), MeOH (2 vol) and CHCl3 (0.5 vol), vortexing briefly then centrifuging at 17,000 × g for 5 min. The top H2O/MeOH layer was discarded and the middle layer of protein pellet and lower CHCl3 layer retained. The suspension was washed with MeOH (300 μL), and sonicated to break up the pellet. The proteins were pelleted by centrifugation at 10,000–17000 × g for 5–10 min or until a compact pellet was formed. The protein pellet was washed once more with MeOH (1 mL). The pellet was resuspended by sonicating and completely dissolving in 1% (w/v) SDS in PBS (to 5 mg/mL protein) before being made up to 1 mg/mL protein with PBS. […]
(§9) f) Neutravidin biotin enrichment (Affinity pull-down)
(§10) Click chemistry and precipitation steps were carried out as described in section 3.2.d, on at least 400ug of protein per sample. The pellet was resuspended by sonicating and completely dissolving in 1% (w/v) SDS in HEPES 50 mM pH 8.0, before being made up to 1 mg/mL protein with HEPES 50 mM pH 8.0 to […]
(§11) achieve a final concentration of 0.2% SDS. 20uL of each samples was collected as TL (Total lysate) samples. Pull down of biotinylated proteins was achieved by incubating samples with pre-equilibrated (3x 1 mL washes with 0.2% (w/v) SDS in HEPES 50 mM pH 8 buffer) Pierce™ NeutrAvidin™ Agarose beads for 3 hours at room temperature. NeutrAvidin™ Agarose beads were used in ratio of 1 μL bead resin per 10ug of protein sample. The beads were subsequently washed by moderate shaking for 10 seconds then briefly pelleting by table-top centrifuge then vacuum aspirating the supernatant with fine-end pipette tips (to not disturb the agarose) after collecting 20 µL supernatant as SN (supernatant […]
(§12) ) samples. […]

RTN3 = target: T2, RTN3 (Homo sapiens, UniProt O95197); assay: as above; type: cell-based
T2 construct: endogenous in cells; host or cells: HEK293T
T2 sequence (O95197 1-1032): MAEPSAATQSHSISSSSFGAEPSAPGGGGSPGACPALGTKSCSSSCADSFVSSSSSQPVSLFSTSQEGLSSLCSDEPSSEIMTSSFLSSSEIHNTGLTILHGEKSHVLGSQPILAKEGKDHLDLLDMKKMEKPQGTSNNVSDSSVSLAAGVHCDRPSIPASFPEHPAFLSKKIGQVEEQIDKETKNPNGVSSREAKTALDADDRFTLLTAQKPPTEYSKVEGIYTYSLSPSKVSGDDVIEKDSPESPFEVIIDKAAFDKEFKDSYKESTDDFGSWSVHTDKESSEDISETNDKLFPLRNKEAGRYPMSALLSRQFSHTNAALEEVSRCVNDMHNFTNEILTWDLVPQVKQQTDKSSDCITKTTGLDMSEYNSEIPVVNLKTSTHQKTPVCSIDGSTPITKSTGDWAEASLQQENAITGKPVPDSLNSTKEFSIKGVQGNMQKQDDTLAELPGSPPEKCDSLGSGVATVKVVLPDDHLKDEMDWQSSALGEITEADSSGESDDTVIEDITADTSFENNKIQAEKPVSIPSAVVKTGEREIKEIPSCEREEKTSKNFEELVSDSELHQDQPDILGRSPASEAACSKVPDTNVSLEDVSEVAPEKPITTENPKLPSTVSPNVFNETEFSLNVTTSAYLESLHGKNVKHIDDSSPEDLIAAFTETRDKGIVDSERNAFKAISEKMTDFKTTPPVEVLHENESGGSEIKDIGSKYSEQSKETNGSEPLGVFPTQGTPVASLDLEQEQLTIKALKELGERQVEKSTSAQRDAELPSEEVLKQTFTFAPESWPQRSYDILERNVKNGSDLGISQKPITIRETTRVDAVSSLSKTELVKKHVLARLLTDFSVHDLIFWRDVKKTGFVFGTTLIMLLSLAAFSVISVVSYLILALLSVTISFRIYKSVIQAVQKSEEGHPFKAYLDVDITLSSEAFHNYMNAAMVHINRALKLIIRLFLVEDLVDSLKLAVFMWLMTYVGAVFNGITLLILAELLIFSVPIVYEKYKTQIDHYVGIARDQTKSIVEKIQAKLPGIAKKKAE
Procedure: as §1, §2, §3, §4, §5, §6, §7, §8, §9, §10, §11, §12

[1] = compound 1 out-competition with IMP-2587 labelling, HEK293T (Table S3, Fig.5b)
[2] = IMP-2587 labelling vs DMSO, 30 nM, 10 min, HEK293T (Table S2, Fig.5a)
[3] = IMP-2586 labelling vs DMSO, 30 nM, 10 min, HEK293T (Table S4, Fig.5c)
[4] = compound 3 out-competition with IMP-2586 labelling, HEK293T (Table S5, Fig.5d)

N#CN1CC[C@H](CC(=O)Nc2cc(-c3cccc(Cl)c3)no2)C1 [compound 1, reference compound]
Difference (log2 fold change of enrichment) (DESI1; [1]): -3.45
Difference (log2 fold change of enrichment) (RTN3; [1]): -0.64

C#Cc1cccc(-c2cc(NC(=O)CC3CCN(C#N)C3)on2)c1 (centres unmarked) [IMP-2587]
Difference (log2 fold change of enrichment) (DESI1; [2]): 3.61
Difference (log2 fold change of enrichment) (RTN3; [2]): 1.07

N#CN1CC[C@@H](NC(=O)c2cc(-c3ccccc3Oc3ccc(N=[N+]=[N-])cc3)n[nH]2)C1 [IMP-2586]
Difference (log2 fold change of enrichment) (DESI1; [3]): 3.04
Difference (log2 fold change of enrichment) (RTN3; [3]): 0.91

N#CN1CC[C@@H](NC(=O)c2cc(-c3ccccc3Oc3ccccc3)n[nH]2)C1 [compound 3, reference compound]
Difference (log2 fold change of enrichment) (DESI1; [4]): -2.81
Difference (log2 fold change of enrichment) (RTN3; [4]): -0.42

Source: PMC11078216, “Discovery of potent and selective activity-based probes (ABPs) for the deubiquitinating enzyme USP30” (RSC Chemical Biology, 2024)
